Results as given in article PMC6277767, “Broad and Region-Specific Impacts of the Synthetic Cannabinoid CP 55,940 in Adolescent and Adult Female Mouse Brains” (Frontiers in Molecular Neuroscience, 2018).

Test system: CD1 female mouse brain lipidome
Test: Brain-region lipid levels (HPLC/MS/MS lipidomics) 2 h after single i.p. 3 mg/kg CP 55,940 vs vehicle
Format: in vivo
Parameters: N-arachidonoyl phenylalanine level, Mean / N-stearoyl tryptophan level, Mean / N-stearoyl proline level, Mean / N-stearoyl leucine level, Mean / N-stearoyl phenylalanine level, Mean / N-stearoyl serine level, Mean / N-stearoyl methionine level, Mean: unit: moles per gram
Method: The Bloomington Institutional Animal Care and Use Committee of Indiana University reviewed and approved the animal procedures. Female mice from the CD1 strain were utilized to match our study examining THC’s effects on the brain lipidome ([Leishman et al., 2018]). Mice were given a single i.p. injection of either 3 mg/kg CP or 1:1:18 cremophor:ethanol:saline vehicle (please refer to the section “3 mg/kg CP Is Relevant for Synthetic Cannabinoid Abuse and Has Stronger Effects on the Female Mouse Brain Lipidome During Adolescence” for a justification of dose and use of female mice). Three different age groups were given injections: PND 35 and PND 50 adolescents, and adult mice (PND 113). At least eight mice in each age group received CP and at least eight received vehicle. Matching the THC study time course ([Leishman et al., 2018]), mice were sacrificed via rapid decapitation 2 h after injection. Brains were immediately removed and flash-frozen in liquid nitrogen, and then stored at -80°C until dissections were performed. Brains were dissected on an ice-cold dissection plate into the following regions: STR, HIPP, CER, THAL, CTX, HYP, MID, and STEM. These abbreviations for these brain areas will be used exclusively when discussing the results generated by these specific dissections. Each dissected area was immediately placed in liquid nitrogen and then stored at -80°C until used for lipid extraction.
Tissue extracts were performed as previously described ([Bradshaw et al., 2006]; [Stuart et al., 2013]; [Raboune et al., 2014]; [Leishman et al., 2016a],[b], [2017], [2018]). First, samples were shock frozen in liquid nitrogen, weighed, and transferred to a centrifuge tube. The mass of the largest sample was multiplied by 50 to determine how many milliliters of HPLC-grade methanol (Fisher, Fair Lawn, NJ, United States) to add. Then, samples were spiked with 500 pmol deuterium-labeled NAGly (d8NAGly; Cayman Chemical, Ann Arbor, MI, United States). Samples were placed on ice in darkness for 2 h then individually homogenized and centrifuged at 19,000 × g for 20 min at 20°C. Supernatants were diluted with HPLC water (purified in house) to make a solution of 75% water, 25% supernatant. Lipids were partially purified on C18 solid phase extraction columns (Agilent, Palo Alto, CA, United States). A series of four elutions with 1.5 mL of 60%, 75%, 85%, and 100% methanol were collected ([Stuart et al., 2013]; [Leishman et al., 2016a],[b], [2018]).
As previously described ([Bradshaw et al., 2006]; [Tan et al., 2006]; [Smoum et al., 2010]; [Stuart et al., 2013]; [Tortoriello et al., 2013]; [Raboune et al., 2014]; [Leishman et al., 2016a],[b], [2017], [2018]), samples were analyzed using an Applied Biosystems API 3000 triple quadrupole mass spectrometer with electrospray ionization (Foster City, CA, United States). Using an Agilent XDB-C18 reversed phase analytical column and optimized mobile phase gradients, 20 μL from each elution were chromatographed. Two Shimadzu 10ADvp pumps (Columbia, MD, United States) provided the pressure for gradient elution. Mobile phase A: 20% methanol, 80% water (v/v) and 1 mM ammonium acetate (Sigma, St. Louis, MO, United States). Mobile phase B: 100% methanol, 1 mM ammonium acetate. Every method run began with 0% mobile phase B, reached 100% mobile phase B flowing at 0.2 mL/min, and gradually returned to 0% mobile phase B.
This screening library will be referred to as the lipidome when discussing data from this study. HPLC/MS/MS data were analyzed using Analyst software (Applied Biosystems) ([Bradshaw et al., 2006]; [Tan et al., 2006]; [Stuart et al., 2013]; [Tortoriello et al., 2013]; [Raboune et al., 2014]; [Leishman et al., 2016a],[b], [2017], [2018]). Chromatograms (Supplementary Figure 3) were generated by determining the retention time of analytes from the analytical column with a [M-1] or [M+1] parent peak and a fragmentation peak corresponding to the programmed values. […]

[1] = hypothalamus, PND 35 adolescent female mice, 3 mg/kg
[2] = midbrain, PND 50, 3mg/kg CP 55,940
[3] = midbrain, PND 50, 3mg/kg CP 55,940, ANOVA p .000
[4] = midbrain, PND 50, 3mg/kg CP 55,940, ANOVA p .001
[5] = midbrain, PND 50, 3mg/kg CP 55,940, ANOVA p .003
[6] = midbrain, PND 50 female mice, 3mg/kg CP 55,940

For `CCCCCCC(C)(C)c1ccc([C@@H]2C[C@H](O)CC[C@H]2CCCO)c(O)c1` [CP 55,940], the “N-stearoyl leucine level, Mean” value [1] was 1.34E-12, the “N-stearoyl phenylalanine level, Mean” value [1] was 1.92E-12 and the “N-stearoyl serine level, Mean” value [1] was 2.17E-11. For the same compound, the “N-stearoyl tryptophan level, Mean” value [1] was 7.7E-12, the “Oleic acid level, Mean” value [1] was 7.46E-10 and the “PGE2 level, Mean” value [1] was 2.42E-10. The “PhosphoLEA level, Mean” value [1] was 6.47E-11, the “2-linoleoyl glycerol Direction (relative to Veh)” value [2] was “↓” and the “2-oleoyl glycerol, Direction (relative to Veh)” value [2] was “↓”. The “6-ketoPGF1α Direction (relative to Veh)” value [2] was “↓”, the “Arachidonic acid, Direction (relative to Veh)” value [2] was “↓” and the “Linoleic acid, Direction (relative to Veh)” value [2] was “↓”. For the same compound, the “N-arachidonoyl GABA Direction (relative to Veh)” value [2] was “↓”, the “N-arachidonoyl alanine, Direction (relative to Veh)” value [2] was “↓” and the “N-arachidonoyl ethanolamine, Direction (relative to Veh)” value [2] was “↓”. For the same compound, the “N-arachidonoyl glycine Direction (relative to Veh)” value [2] was “↓”, the “N-arachidonoyl methionine, Direction (relative to Veh)” value [2] was “↓” and the “N-arachidonoyl phenylalanine, Direction (relative to Veh)” value [2] was “↓”. The “N-arachidonoyl tyrosine, Direction (relative to Veh)” value [2] was “↓”, the “N-docosahexaenoyl GABA Direction (relative to Veh)” value [2] was “↓” and the “N-docosahexaenoyl ethanolamine, Direction (relative to Veh)” value [2] was “↓”. The “N-docosahexaenoyl leucine Direction (relative to Veh)” value [2] was “↑”, the “N-linoleoyl ethanolamine, Direction (relative to Veh)” value [2] was “↓” and the “N-oleoyl ethanolamine, Direction (relative to Veh)” value [2] was “↓”. For the same compound, the “N-oleoyl methionine, Direction (relative to Veh)” value [2] was “↓”, the “N-palmitoyl alanine, Direction (relative to Veh)” value [2] was “↓” and the “N-palmitoyl ethanolamine, Direction (relative to Veh)” value [2] was “↓”. For the same compound, the “N-palmitoyl leucine, Direction (relative to Veh)” value [2] was “↑”, the “N-palmitoyl serine, Direction (relative to Veh)” value [2] was “↓” and the “N-stearoyl methionine, Direction (relative to Veh)” value [2] was “↓”. The “N-stearoyl phenylalanine, Direction (relative to Veh)” value [2] was “↓”, the “PGE2 Direction (relative to Veh)” value [2] was “↓” and the “PGF2α Direction (relative to Veh)” value [2] was “↓”. For the same compound, the “Arachidonic acid, Magnitude (x Veh level)” value [3] was 0.74 x Veh level, the “N-arachidonoyl glycine Magnitude (x Veh level)” value [3] was 0.65 x Veh level and the “N-arachidonoyl methionine, Magnitude (x Veh level)” value [3] was 0.64 x Veh level. The “N-arachidonoyl phenylalanine, Magnitude (x Veh level)” value [3] was 0.69 x Veh level, the “N-arachidonoyl tyrosine, Magnitude (x Veh level)” value [4] was 0.68 x Veh level and the “PGE2 Magnitude (x Veh level)” value [4] was 0.75 x Veh level. The “N-palmitoyl leucine, Magnitude (x Veh level)” value (midbrain, PND 50, 3mg/kg CP 55,940, ANOVA p .002) was 1.33 x Veh level, the “N-docosahexaenoyl GABA Magnitude (x Veh level)” value [5] was 0.71 x Veh level and the “N-linoleoyl ethanolamine, Magnitude (x Veh level)” value [5] was 0.81 x Veh level. The “Linoleic acid, Magnitude (x Veh level)” value (midbrain, PND 50, 3mg/kg CP 55,940, ANOVA p .004) was 0.75 x Veh level, the “PGF2α Magnitude (x Veh level)” value (midbrain, PND 50, 3mg/kg CP 55,940, ANOVA p .007) was 0.82 x Veh level and the “N-palmitoyl ethanolamine, Magnitude (x Veh level)” value (midbrain, PND 50, 3mg/kg CP 55,940, ANOVA p .011) was 0.86 x Veh level. For the same compound, the “2-linoleoyl glycerol Magnitude (x Veh level)” value (midbrain, PND 50, 3mg/kg CP 55,940, ANOVA p .017) was 0.82 x Veh level, the “N-arachidonoyl GABA Magnitude (x Veh level)” value (midbrain, PND 50, 3mg/kg CP 55,940, ANOVA p .021) was 0.73 x Veh level and the “N-docosahexaenoyl ethanolamine, Magnitude (x Veh level)” value (midbrain, PND 50, 3mg/kg CP 55,940, ANOVA p .023) was 0.81 x Veh level. The “N-oleoyl methionine, Magnitude (x Veh level)” value (midbrain, PND 50, 3mg/kg CP 55,940, ANOVA p .026) was 0.54 x Veh level, the “N-arachidonoyl ethanolamine, Magnitude (x Veh level)” value (midbrain, PND 50, 3mg/kg CP 55,940, ANOVA p .031) was 0.83 x Veh level and the “N-oleoyl ethanolamine, Magnitude (x Veh level)” value (midbrain, PND 50, 3mg/kg CP 55,940, ANOVA p .037) was 0.83 x Veh level. The “N-stearoyl methionine, Magnitude (x Veh level)” value (midbrain, PND 50, 3mg/kg CP 55,940, ANOVA p .042) was 0.78 x Veh level, the “N-palmitoyl serine, Magnitude (x Veh level)” value (midbrain, PND 50, 3mg/kg CP 55,940, ANOVA p .048) was 0.84 x Veh level and the “N-arachidonoyl alanine Magnitude (x Veh level)” value (midbrain, PND 50, 3mg/kg CP 55,940, ANOVA p .057) was 0.62 x Veh level. For the same compound, the “N-docosahexaenoyl leucine Magnitude (x Veh level)” value (midbrain, PND 50, 3mg/kg CP 55,940, ANOVA p .063) was 1.47 x Veh level, the “2-oleoyl glycerol, Magnitude (x Veh level)” value (midbrain, PND 50, 3mg/kg CP 55,940, ANOVA p .073) was 0.89 x Veh level and the “N-stearoyl phenylalanine, Magnitude (x Veh level)” value (midbrain, PND 50, 3mg/kg CP 55,940, ANOVA p .077) was 0.85 x Veh level. For the same compound, the “N-palmitoyl alanine, Magnitude (x Veh level)” value (midbrain, PND 50, 3mg/kg CP 55,940, ANOVA p .081) was 0.77 x Veh level, the “6-ketoPGF1α Magnitude (x Veh level)” value (midbrain, PND 50, 3mg/kg CP 55,940, ANOVA p .089) was 0.75 x Veh level and the “2-arachidonoyl glycerol level, Mean” value [6] was 3.27E-10. For the same compound, the “2-linoleoyl glycerol level, Mean” value [6] was 3.73E-10, the “2-oleoyl glycerol level, Mean” value [6] was 4.95E-09 and the “2-palmitoyl glycerol level, Mean” value [6] was 3.34E-09. The “6-ketoPGF1α level, Mean” value [6] was 1.22E-11, the “11-OH-THC level, Mean” value [6] was “BDL” and the “11-nor-9-carboxyTHC level, Mean” value [6] was “BDL”. The “Arachidonic acid level, Mean” value [6] was 3.1E-10, the “Cannabidiol level, Mean” value [6] was “BDL” and the “Linoleic acid level, Mean” value [6] was 2.67E-10. The “N- stearoyl valine level, Mean” value [6] was 9.43E-14, the “N-arachidonoyl GABA level, Mean” value [6] was 1.55E-11 and the “N-arachidonoyl alanine level, Mean” value [6] was 9.08E-14. The “N-arachidonoyl dopamine level, Mean” value [6] was “BDL”, the “N-arachidonoyl ethanolamine level, Mean” value [6] was 3.81E-11 and the “N-arachidonoyl glycine level, Mean” value [6] was 4.39E-12. The “N-arachidonoyl methionine level, Mean” value [6] was 1.8E-13, the “N-arachidonoyl phenylalanine level, Mean” value [6] was 5.45E-13 and the “N-arachidonoyl proline level, Mean” value [6] was “BDL”. The “N-arachidonoyl serine level, Mean” value [6] was 7.6E-12, the “N-arachidonoyl taurine level, Mean” value [6] was 1.38E-11 and the “N-arachidonoyl tryptophan level, Mean” value [6] was “BDL”. The “N-arachidonoyl tyrosine level, Mean” value [6] was 3.91E-13, the “N-docosahexaenoyl GABA level, Mean” value [6] was 1.45E-12 and the “N-docosahexaenoyl alanine level, Mean” value [6] was “PISSR”. The “N-docosahexaenoyl ethanolamine level, Mean” value [6] was 5.23E-11, the “N-docosahexaenoyl glycine level, Mean” value [6] was 5.53E-13 and the “N-docosahexaenoyl leucine level, Mean” value [6] was 1.28E-13. The “N-docosahexaenoyl methionine level, Mean” value [6] was “BDL”, the “N-docosahexaenoyl phenylalanine level, Mean” value [6] was 6.24E-13 and the “N-docosahexaenoyl proline level, Mean” value [6] was “BDL”. The “N-docosahexaenoyl serine level, Mean” value [6] was 1.85E-11, the “N-docosahexaenoyl tryptophan level, Mean” value [6] was “BDL” and the “N-docosahexaenoyl tyrosine level, Mean” value [6] was 5.71E-13. For the same compound, the “N-docosahexaenoyl valine level, Mean” value [6] was “PISSR”, the “N-linoleoyl GABA level, Mean” value [6] was 1.04E-12 and the “N-linoleoyl alanine level, Mean” value [6] was “PISSR”. The “N-linoleoyl ethanolamine level, Mean” value [6] was 5.21E-11, the “N-linoleoyl glycine level, Mean” value [6] was 2.23E-13 and the “N-linoleoyl leucine level, Mean” value [6] was 3.86E-14. The “N-linoleoyl methionine level, Mean” value [6] was “BDL”, the “N-linoleoyl phenylalanine level, Mean” value [6] was 1.31E-13 and the “N-linoleoyl proline level, Mean” value [6] was “BDL”.
